The source of these data is PubChem BioAssay (NCI).

Some test systems named below: 786-0 renal; EKVX NSCLC; HCC-2998 colon; IGROV1 ovarian; M14 melanoma; NCI-H460 lung; NCI-H522 lung; SNB-75 CNS.
What all share (test): NCI-60 cell line screen, 48 h

SMILES strings stand for the structures.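 Exposure lasted 48 hours, with cells grown in 96-well plates and compounds tested at five concentrations. GI50 = concentration required for 50% inhibition of growth. TGI: concentration producing complete growth inhibition.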

`O=C(c1ccco1)c1c(C(F)(F)F)n([O-])c2cc(F)c(F)cc2[n+]1=O`: the GI50 with 786-0 renal is 0.0512 µM; with EKVX NSCLC it was 0.57 µM; with IGROV1 ovarian it was 1.07 µM; in the assay on M14 melanoma, 0.225 µM; in the assay on NCI-H460 lung, 0.252 µM; in the assay with NCI-H522 lung, 1.88 µM. In addition, the TGI in the assay on 786-0 renal turned out to be 0.137 µM; in the assay on EKVX NSCLC it was 1.26 µM; in the assay with HCC-2998 colon, 0.0145 µM; in the assay with IGROV1 ovarian, 3.31 µM; with M14 melanoma, 0.528 µM; in the assay with NCI-H460 lung, 5.78 µM. The same compound had a TGI in the assay on NCI-H522 lung of 5.47 µM.

As to `Cc1cc2c(c(=O)o1)C1=S(SC(c3ccccc3)=C1)S2` (stereo not drawn), the TGI with 786-0 renal is 28.8 µM; in the assay on IGROV1 ovarian it was above 100 µM; in the assay with M14 melanoma, above 100 µM; with NCI-H460 lung it was above 100 µM; with NCI-H522 lung, above 100 µM; in the assay with SNB-75 CNS, 94.5 µM.

On to `O=c1[nH]c(=S)[nH]c(-c2ccccc2)c1Cc1c(O)ccc2ccccc12`, for which the TGI in the assay on 786-0 renal is above 100 µM; in the assay on EKVX NSCLC, 64.4 µM; in the assay with IGROV1 ovarian, above 100 µM; in the assay with M14 melanoma, 78.5 µM; in the assay with NCI-H460 lung it was above 100 µM; in the assay on NCI-H522 lung it was above 100 µM. This compound also registered a TGI in the assay with SNB-75 CNS of 65 µM.

With `Nc1nc(C(=O)O)c(N=Nc2ccccc2)c(=O)[nH]1`, the TGI in the assay with 786-0 renal, in the assay on EKVX NSCLC, in the assay with IGROV1 ovarian, with M14 melanoma, with NCI-H460 lung and in the assay on NCI-H522 lung was above 100 µM throughout. The TGI in the assay with SNB-75 CNS is above 100 µM.

On to `Clc1ccc([I+]c2ccc(Cl)cc2Cl)c(Cl)c1`, for which the GI50 in the assay on 786-0 renal is 2.09 µM; in the assay on M14 melanoma it was 2.58 µM; in the assay on NCI-H460 lung it was 2.35 µM; in the assay with NCI-H522 lung, 1.62 µM; in the assay with SNB-75 CNS, 1.88 µM. For the same compound, the TGI in the assay on 786-0 renal came to 4.36 µM; with M14 melanoma it was 6.07 µM; with NCI-H460 lung, 5.39 µM; with NCI-H522 lung, 3.01 µM; with SNB-75 CNS it was 5.39 µM.

Take `CN1C(=NCCO)NS(=O)(=O)c2ccccc21`: the TGI in the assay with 786-0 renal, with EKVX NSCLC, in the assay on HCC-2998 colon, in the assay with IGROV1 ovarian, in the assay on M14 melanoma and in the assay on NCI-H460 lung was above 100 µM each time. For the same compound, the TGI in the assay with NCI-H522 lung was above 100 µM.

As for `COc1ccc(-c2c3c(N)c4c(nc3nc3c2c(C)nn3-c2ccccc2)CCCC4)cc1`, the GI50 in the assay on 786-0 renal was 4.55 µM; in the assay with HCC-2998 colon it was 3.51 µM; with IGROV1 ovarian it was 4.26 µM; in the assay with M14 melanoma, 3.74 µM; in the assay on NCI-H460 lung it was 3.28 µM; in the assay on NCI-H522 lung, 2.91 µM. Also, the GI50 in the assay with SNB-75 CNS is 14 µM. Moreover, the TGI is 17.5 µM in the assay on 786-0 renal; 12.7 µM in the assay on HCC-2998 colon; 18.6 µM in the assay with IGROV1 ovarian; 13 µM with M14 melanoma; 11.3 µM in the assay on NCI-H460 lung; 12.2 µM with NCI-H522 lung. Further, the TGI in the assay with SNB-75 CNS stood at 31.8 µM.

With `O=C1C(Nc2cccc(O)c2)=C(Sc2ccccc2)C(=O)N1Cc1ccccc1`, the GI50 in the assay on 786-0 renal is 20.7 µM; with EKVX NSCLC, 10.1 µM; in the assay with M14 melanoma, 5.35 µM; with NCI-H460 lung it was 11.3 µM; with NCI-H522 lung, 5.75 µM. For the same compound, the TGI in the assay on 786-0 renal is 39.4 µM; in the assay with EKVX NSCLC it was 28.5 µM; in the assay with M14 melanoma, 19.5 µM; in the assay with NCI-H460 lung, 29 µM; with NCI-H522 lung it was 23.9 µM.

For the compound `COC(=O)c1cc([N+](=O)[O-])cc([N+](=O)[O-])c1Cl`, the GI50 with 786-0 renal is 1.79 µM; in the assay on EKVX NSCLC, 14.1 µM; in the assay with HCC-2998 colon, 14.4 µM; in the assay with NCI-H460 lung, 13.1 µM; in the assay with NCI-H522 lung it was 1.82 µM; in the assay with SNB-75 CNS, 1.93 µM. Further, the TGI in the assay with 786-0 renal was found to be 3.22 µM; in the assay on EKVX NSCLC, 28.8 µM; in the assay on HCC-2998 colon, 28.3 µM; with NCI-H460 lung, 39 µM; in the assay on NCI-H522 lung it was 3.31 µM; in the assay with SNB-75 CNS, 5.07 µM.

`CN1CCCC1c1cccnc1.O=C(O)c1ccccc1O.O=C([O-])c1ccccc1[OH2+].O=C([O-])c1ccccc1[OH2+].[Mn+2]` (stereo not drawn): the GI50 in the assay with 786-0 renal was above 100 µM; in the assay with EKVX NSCLC it was above 100 µM; in the assay on IGROV1 ovarian, above 100 µM; with M14 melanoma, above 100 µM; in the assay with NCI-H522 lung, 16.7 µM; in the assay on SNB-75 CNS, above 100 µM. Further, the TGI was above 100 µM in the assay on 786-0 renal; above 100 µM with EKVX NSCLC; above 100 µM in the assay on IGROV1 ovarian; above 100 µM in the assay on M14 melanoma; 36.4 µM with NCI-H522 lung; above 100 µM in the assay with SNB-75 CNS.

As to `N#Cc1cc2c(cc1Cl)Sc1nnc(Nc3cccc4ccccc34)n1S2(=O)=O`, the GI50 in the assay on 786-0 renal was 16.9 µM; with EKVX NSCLC it was 20.2 µM; with IGROV1 ovarian, 7.38 µM; in the assay with M14 melanoma, 3.81 µM; with NCI-H460 lung it was 13.8 µM; in the assay with NCI-H522 lung, 21.6 µM. The GI50 in the assay on SNB-75 CNS is 6.43 µM. Further, the TGI was 45.4 µM with 786-0 renal; 39.6 µM in the assay on EKVX NSCLC; 21.2 µM in the assay with IGROV1 ovarian; 22.8 µM with M14 melanoma; 33.8 µM in the assay on NCI-H460 lung; above 100 µM in the assay with NCI-H522 lung. In addition, the TGI with SNB-75 CNS came to 18.2 µM.

On to `COc1cc(/C=C/C(=O)O[C@H]2[C@H](O[C@@H]3O[C@@H](C)[C@H](O)[C@@H](O)[C@H]3O)[C@@H](O)[C@H](OCCc3ccc(O)c(O)c3)O[C@@H]2COC2OCC(O)(CO)C2O)ccc1O` (stereo partly drawn), for which the GI50 in the assay on 786-0 renal, with EKVX NSCLC, with IGROV1 ovarian, in the assay with M14 melanoma, with NCI-H460 lung and in the assay with NCI-H522 lung was above 100 µM throughout. Also, the GI50 in the assay with SNB-75 CNS was above 100 µM. The TGI in the assay with 786-0 renal, with EKVX NSCLC, in the assay with IGROV1 ovarian, with M14 melanoma, in the assay with NCI-H460 lung and in the assay with NCI-H522 lung was above 100 µM each time. This compound had a TGI in the assay with SNB-75 CNS above 100 µM.

For the compound `NC(=O)CC(N)c1nn[nH]n1` (stereo not drawn), the TGI in the assay with 786-0 renal, in the assay with EKVX NSCLC, in the assay with IGROV1 ovarian, in the assay on M14 melanoma, in the assay on NCI-H460 lung and with NCI-H522 lung was above 100 µM each time. The TGI in the assay with SNB-75 CNS was above 100 µM.
